Measured values taken from ChEMBL document CHEMBL1129381, “Novel (R)-2-amino-5-fluorotetralins: dopaminergic antagonists and inverse agonists” (J Med Chem, 1996).

Key:
[1] = biological target: T1, 5-hydroxytryptamine receptor 1A (Rattus norvegicus, UniProt P19327); assay: Inhibition of [3H]8-OH-DPAT binding to 5-hydroxytryptamine 1A receptor
T1 sequence (P19327 whole entry): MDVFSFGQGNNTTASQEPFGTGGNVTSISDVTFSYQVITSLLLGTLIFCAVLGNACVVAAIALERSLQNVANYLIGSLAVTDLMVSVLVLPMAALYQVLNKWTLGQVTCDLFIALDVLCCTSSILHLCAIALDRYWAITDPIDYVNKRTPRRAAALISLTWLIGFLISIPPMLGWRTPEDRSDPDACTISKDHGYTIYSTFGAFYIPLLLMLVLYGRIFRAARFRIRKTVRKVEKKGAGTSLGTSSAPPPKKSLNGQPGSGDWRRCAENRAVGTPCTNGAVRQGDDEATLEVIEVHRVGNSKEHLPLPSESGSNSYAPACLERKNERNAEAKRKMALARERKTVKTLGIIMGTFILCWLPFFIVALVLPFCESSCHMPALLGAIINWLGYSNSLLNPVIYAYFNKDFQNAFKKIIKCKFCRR

D(2) dopamine receptor [2] = biological target: T2, D(2) dopamine receptor (Homo sapiens, UniProt P14416); assay: Hill coefficients for [3H]-raclopride binding to dopamine D2 receptor high-and low-affinity agonist states
T2 sequence (P14416 whole entry): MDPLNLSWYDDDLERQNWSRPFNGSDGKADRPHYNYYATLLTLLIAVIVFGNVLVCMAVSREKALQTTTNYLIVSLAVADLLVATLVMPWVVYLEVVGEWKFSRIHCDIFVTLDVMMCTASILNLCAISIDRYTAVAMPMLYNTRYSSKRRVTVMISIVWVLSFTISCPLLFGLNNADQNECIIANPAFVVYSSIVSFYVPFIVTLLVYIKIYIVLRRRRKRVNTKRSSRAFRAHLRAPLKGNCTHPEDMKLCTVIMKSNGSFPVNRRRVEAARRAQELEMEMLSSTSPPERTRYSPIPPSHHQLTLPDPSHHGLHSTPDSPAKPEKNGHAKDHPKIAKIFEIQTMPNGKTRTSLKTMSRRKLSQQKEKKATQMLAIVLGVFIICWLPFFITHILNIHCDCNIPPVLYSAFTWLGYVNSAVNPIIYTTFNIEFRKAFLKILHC

D(2) dopamine receptor [3] = biological target: T2, D(2) dopamine receptor
D(2) dopamine receptor [4] = biological target: T2, D(2) dopamine receptor; remark: listed apart in the source
D(3) dopamine receptor [5] = biological target: T3, D(3) dopamine receptor (Homo sapiens, UniProt P35462)
T3 sequence (P35462 whole entry): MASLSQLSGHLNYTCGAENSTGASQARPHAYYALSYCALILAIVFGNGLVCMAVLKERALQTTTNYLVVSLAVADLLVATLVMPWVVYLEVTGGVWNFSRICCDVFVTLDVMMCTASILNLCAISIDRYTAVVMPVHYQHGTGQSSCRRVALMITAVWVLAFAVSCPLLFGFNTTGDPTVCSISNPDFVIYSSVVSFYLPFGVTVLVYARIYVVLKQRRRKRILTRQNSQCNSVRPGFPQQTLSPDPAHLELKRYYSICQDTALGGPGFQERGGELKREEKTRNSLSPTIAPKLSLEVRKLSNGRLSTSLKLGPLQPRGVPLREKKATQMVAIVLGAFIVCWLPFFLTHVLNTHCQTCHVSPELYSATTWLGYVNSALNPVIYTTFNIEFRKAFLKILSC

D(3) dopamine receptor [6] = biological target: T3, D(3) dopamine receptor; remark: listed apart in the source
D(2) dopamine receptor [7] = biological target: T2, D(2) dopamine receptor; assay: Inhibition of [3H]raclopride binding to Dopamine receptor D2

CCCCN(CCC)[C@@H]1CCc2c(F)cccc2C1
Ki [1]: 44.5 nM
nH (D(2) dopamine receptor [2]): 0.91
Ki (D(2) dopamine receptor [3]): 45.6 nM
Ki (D(2) dopamine receptor [4]): 210 nM
Ki (D(3) dopamine receptor [5]): 4.42 nM
nH (D(3) dopamine receptor [6]): 0.98

CCCCN[C@@H]1CCc2c(F)cccc2C1
Ki [1]: 440 nM
nH (D(2) dopamine receptor [2]): 0.93
Ki (D(2) dopamine receptor [3]): 254 nM
Ki (D(2) dopamine receptor [4]): 790 nM
Ki (D(3) dopamine receptor [5]): 158 nM
nH (D(3) dopamine receptor [6]): 0.79

CCCN[C@@H]1CCc2c(F)cccc2C1
Ki [1]: 108 nM
nH (D(2) dopamine receptor [2]): 0.86
Ki (D(2) dopamine receptor [3]): 167 nM
Ki (D(2) dopamine receptor [4]): 582 nM
Ki (D(3) dopamine receptor [5]): 35.8 nM
nH (D(3) dopamine receptor [6]): 0.92

O=C1CC2(CCCC2)CC(=O)N1CCCCN[C@@H]1CCc2c(F)cccc2C1
Ki [1]: 6.46 nM
nH (D(2) dopamine receptor [2]): 0.88
Ki (D(2) dopamine receptor [7]): 68.2 nM
Ki (D(2) dopamine receptor [3]): 37 nM
Ki (D(3) dopamine receptor [5]): 4.94 nM
nH (D(3) dopamine receptor [6]): 0.88

CCCN(Cc1ccccc1)[C@@H]1CCc2c(F)cccc2C1
Ki [1]: 28.8 nM
nH (D(2) dopamine receptor [2]): 0.86
Ki (D(2) dopamine receptor [3]): 179 nM
Ki (D(2) dopamine receptor [4]): 415 nM
Ki (D(3) dopamine receptor [5]): 23.8 nM
nH (D(3) dopamine receptor [6]): 0.92

CC(C)N[C@@H]1CCc2c(F)cccc2C1
Ki [1]: 627 nM
nH (D(2) dopamine receptor [2]): 0.88
Ki (D(2) dopamine receptor [4]): 5940 nM
Ki (D(3) dopamine receptor [5]): 1450 nM
nH (D(3) dopamine receptor [6]): 0.9

CCCN(CCCCN1C(=O)CC2(CCCC2)CC1=O)[C@@H]1CCc2c(F)cccc2C1
Ki [1]: 0.246 nM
nH (D(2) dopamine receptor [2]): 0.87
Ki (D(2) dopamine receptor [7]): 16.9 nM
Ki (D(2) dopamine receptor [3]): 4.94 nM
Ki (D(3) dopamine receptor [5]): 0.251 nM
nH (D(3) dopamine receptor [6]): 0.92

CCCN(CCC)[C@@H]1CCc2c(F)cccc2C1
Ki [1]: 30.2 nM
nH (D(2) dopamine receptor [2]): 0.89
Ki (D(2) dopamine receptor [3]): 26 nM
Ki (D(2) dopamine receptor [4]): 201 nM
Ki (D(3) dopamine receptor [5]): 8.62 nM
nH (D(3) dopamine receptor [6]): 1.03

CCCN(C(C)C)[C@@H]1CCc2c(F)cccc2C1
Ki [1]: 644 nM
nH (D(2) dopamine receptor [2]): 0.94
Ki (D(2) dopamine receptor [3]): 1530 nM
Ki (D(2) dopamine receptor [4]): 4720 nM
Ki (D(3) dopamine receptor [5]): 199 nM
nH (D(3) dopamine receptor [6]): 0.91

Fc1cccc2c1CC[C@@H](NCc1ccccc1)C2
Ki [1]: 494 nM
nH (D(2) dopamine receptor [2]): 0.81
Ki (D(2) dopamine receptor [3]): 779 nM
Ki (D(2) dopamine receptor [4]): 2830 nM
Ki (D(3) dopamine receptor [5]): 1050 nM
nH (D(3) dopamine receptor [6]): 0.88

NCCc1ccc(O)c(O)c1
nH (D(2) dopamine receptor [2]): 0.66

N[C@@H]1CCc2c(F)cccc2C1
Ki [1]: 525 nM
nH (D(2) dopamine receptor [2]): 0.81
Ki (D(2) dopamine receptor [3]): 585 nM
Ki (D(2) dopamine receptor [4]): 864 nM
Ki (D(3) dopamine receptor [5]): 150 nM
nH (D(3) dopamine receptor [6]): 0.99
